According to patent US9113629B2, “4-amino-6-(4-substituted-phenyl)-picolinates and 6-amino-2-(4-substituted-phenyl)-pyrimidine-4-carboxylates and their use as herbicides” (DOW AGROSCIENCES LLC, priority 2013, dated 2015):

system: Key Broadleaf Weed and Crop Species; assay: Post-emergent Test II herbicidal activity (Table 5); format: in vivo; settings: post-emergence, 336 h; ABUTH: velvetleaf (Abutilon theophrasti); 70 g ai/ha; post-emergent; 14 days after application; read-out: Visual Growth Reduction (%) 14 Days After Application ABUTH
How it was run: (§1)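 Compounds, dissolved in 97:3 acetone/DMSO and diluted into an aqueous carrier containing crop oil concentrate and Triton X-155, are applied over the top of young plants at 187 L/ha. Injury is scored visually at 14 d, 0% meaning no effect and 100% complete kill.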

Row | Compound | pest or weed control at 70 g/ha [%]
1 | Nc1c(F)c(-c2cc(F)c(I)cc2F)nc(C(=O)O)c1Cl [Compound 69] | 85 to 94

same assay, conditions: post-emergence, 336 h; ABUTH: velvetleaf (Abutilon theophrasti); 140 g ai/ha; post-emergent; 14 days after application; read-out: Visual Growth Reduction (%) 14 Days After Application ABUTH

Row | Compound | pest or weed control at 140 g/ha [%]
2 | Nc1c(F)c(-c2cc(F)c(I)cc2F)nc(C(=O)O)c1Cl [Compound 69] | 85 to 94

same assay, conditions: post-emergence, 336 h; AMARE: redroot pigweed (Amaranthus retroflexus); 70 g ai/ha; post-emergent; 14 days after application; read-out: Visual Growth Reduction (%) 14 Days After Application AMARE

Row | Compound | pest or weed control at 70 g/ha [%]
3 | Nc1c(F)c(-c2cc(F)c(I)cc2F)nc(C(=O)O)c1Cl [Compound 69] | 95 to 100

same assay, conditions: post-emergence, 336 h; AMARE: redroot pigweed (Amaranthus retroflexus); 140 g ai/ha; post-emergent; 14 days after application; read-out: Visual Growth Reduction (%) 14 Days After Application AMARE

Row | Compound | pest or weed control at 140 g/ha [%]
4 | Nc1c(F)c(-c2cc(F)c(I)cc2F)nc(C(=O)O)c1Cl [Compound 69] | 95 to 100

same assay, conditions: post-emergence, 336 h; BRSNN: oilseed-rape, canola (Brassica napus); 70 g ai/ha; post-emergent; 14 days after application; read-out: Visual Growth Reduction (%) 14 Days After Application BRSNN

Row | Compound | pest or weed control at 70 g/ha [%]
5 | Nc1c(F)c(-c2cc(F)c(I)cc2F)nc(C(=O)O)c1Cl [Compound 69] | 95 to 100

same assay, conditions: post-emergence, 336 h; BRSNN: oilseed-rape, canola (Brassica napus); 140 g ai/ha; post-emergent; 14 days after application; read-out: Visual Growth Reduction (%) 14 Days After Application BRSNN

Row | Compound | pest or weed control at 140 g/ha [%]
6 | Nc1c(F)c(-c2cc(F)c(I)cc2F)nc(C(=O)O)c1Cl [Compound 69] | 95 to 100

same assay, conditions: post-emergence, 336 h; CHEAL: lambsquarters (Chenopodium album); 70 g ai/ha; post-emergent; 14 days after application; read-out: Visual Growth Reduction (%) 14 Days After Application CHEAL

Row | Compound | pest or weed control at 70 g/ha [%]
7 | Nc1c(F)c(-c2cc(F)c(I)cc2F)nc(C(=O)O)c1Cl [Compound 69] | 95 to 100

same assay, conditions: post-emergence, 336 h; CHEAL: lambsquarters (Chenopodium album); 140 g ai/ha; post-emergent; 14 days after application; read-out: Visual Growth Reduction (%) 14 Days After Application CHEAL

Row | Compound | pest or weed control at 140 g/ha [%]
8 | Nc1c(F)c(-c2cc(F)c(I)cc2F)nc(C(=O)O)c1Cl [Compound 69] | 95 to 100

same assay, conditions: post-emergence, 336 h; EPHHL: wild poinsettia (Euphorbia heterophylla); 70 g ai/ha; post-emergent; 14 days after application; read-out: Visual Growth Reduction (%) 14 Days After Application EPHHL

Row | Compound | pest or weed control at 70 g/ha [%]
9 | Nc1c(F)c(-c2cc(F)c(I)cc2F)nc(C(=O)O)c1Cl [Compound 69] | 95 to 100

same assay, conditions: post-emergence, 336 h; EPHHL: wild poinsettia (Euphorbia heterophylla); 140 g ai/ha; post-emergent; 14 days after application; read-out: Visual Growth Reduction (%) 14 Days After Application EPHHL

Row | Compound | pest or weed control at 140 g/ha [%]
10 | Nc1c(F)c(-c2cc(F)c(I)cc2F)nc(C(=O)O)c1Cl [Compound 69] | 95 to 100

same assay, conditions: post-emergence, 336 h; HELAN: sunflower (Helianthus annuus); 70 g ai/ha; post-emergent; 14 days after application; read-out: Visual Growth Reduction (%) 14 Days After Application HELAN

Row | Compound | pest or weed control at 70 g/ha [%]
11 | Nc1c(F)c(-c2cc(F)c(I)cc2F)nc(C(=O)O)c1Cl [Compound 69] | 95 to 100

same assay, conditions: post-emergence, 336 h; HELAN: sunflower (Helianthus annuus); 140 g ai/ha; post-emergent; 14 days after application; read-out: Visual Growth Reduction (%) 14 Days After Application HELAN

Row | Compound | pest or weed control at 140 g/ha [%]
12 | Nc1c(F)c(-c2cc(F)c(I)cc2F)nc(C(=O)O)c1Cl [Compound 69] | 95 to 100

same assay, conditions: post-emergence, 336 h; VIOTR: wild pansy (Viola tricolor); 70 g ai/ha; post-emergent; 14 days after application; read-out: Visual Growth Reduction (%) 14 Days After Application VIOTR

Row | Compound | pest or weed control at 70 g/ha [%]
13 | Nc1c(F)c(-c2cc(F)c(I)cc2F)nc(C(=O)O)c1Cl [Compound 69] | 95 to 100

same assay, conditions: post-emergence, 336 h; VIOTR: wild pansy (Viola tricolor); 140 g ai/ha; post-emergent; 14 days after application; read-out: Visual Growth Reduction (%) 14 Days After Application VIOTR

Row | Compound | pest or weed control at 140 g/ha [%]
14 | Nc1c(F)c(-c2cc(F)c(I)cc2F)nc(C(=O)O)c1Cl [Compound 69] | 95 to 100

system: Key Grass and Sedge Weeds as well as Grass Crops; assay: Post-emergent Test II herbicidal activity (Table 6); format: in vivo; settings: Triticum aestivum, post-emergence, 336 h, TRZSS (wheat), application rate 70 g ai/ha, read-out: Visual Growth Reduction (%) 14 Days After Application, TRZSS
How it was run: as §1

Row | Compound | pest or weed control at 70 g/ha [%]
15 | Nc1c(F)c(-c2cc(F)c(I)cc2F)nc(C(=O)O)c1Cl [Compound 69] | 60 to 74

same assay, conditions: Triticum aestivum, post-emergence, 336 h, TRZSS (wheat), application rate 140 g ai/ha, read-out: Visual Growth Reduction (%) 14 Days After Application, TRZSS

Row | Compound | pest or weed control at 140 g/ha [%]
16 | Nc1c(F)c(-c2cc(F)c(I)cc2F)nc(C(=O)O)c1Cl [Compound 69] | 85 to 94

same assay, conditions: post-emergence, 336 h, CYPES: yellow nutsedge (Cyperus esculentus), application rate 70 g ai/ha, read-out: Visual Growth Reduction (%) 14 Days After Application, CYPES

Row | Compound | pest or weed control at 70 g/ha [%]
17 | Nc1c(F)c(-c2cc(F)c(I)cc2F)nc(C(=O)O)c1Cl [Compound 69] | 45 to 59

same assay, conditions: post-emergence, 336 h, CYPES: yellow nutsedge (Cyperus esculentus), application rate 140 g ai/ha, read-out: Visual Growth Reduction (%) 14 Days After Application, CYPES

Row | Compound | pest or weed control at 140 g/ha [%]
18 | Nc1c(F)c(-c2cc(F)c(I)cc2F)nc(C(=O)O)c1Cl [Compound 69] | 95 to 100

same assay, conditions: post-emergence, 336 h, DIGSA: crabgrass (Digitaria sanguinalis), application rate 70 g ai/ha, read-out: Visual Growth Reduction (%) 14 Days After Application, DIGSA

Row | Compound | pest or weed control at 70 g/ha [%]
19 | Nc1c(F)c(-c2cc(F)c(I)cc2F)nc(C(=O)O)c1Cl [Compound 69] | 95 to 100

same assay, conditions: post-emergence, 336 h, DIGSA: crabgrass (Digitaria sanguinalis), application rate 140 g ai/ha, read-out: Visual Growth Reduction (%) 14 Days After Application, DIGSA

Row | Compound | pest or weed control at 140 g/ha [%]
20 | Nc1c(F)c(-c2cc(F)c(I)cc2F)nc(C(=O)O)c1Cl [Compound 69] | 95 to 100

same assay, conditions: post-emergence, 336 h, ECHCG: barnyardgrass (Echinochloa crus-galli), application rate 70 g ai/ha, read-out: Visual Growth Reduction (%) 14 Days After Application, ECHCG

Row | Compound | pest or weed control at 70 g/ha [%]
21 | Nc1c(F)c(-c2cc(F)c(I)cc2F)nc(C(=O)O)c1Cl [Compound 69] | 95 to 100

same assay, conditions: post-emergence, 336 h, ECHCG: barnyardgrass (Echinochloa crus-galli), application rate 140 g ai/ha, read-out: Visual Growth Reduction (%) 14 Days After Application, ECHCG

Row | Compound | pest or weed control at 140 g/ha [%]
22 | Nc1c(F)c(-c2cc(F)c(I)cc2F)nc(C(=O)O)c1Cl [Compound 69] | 95 to 100

same assay, conditions: post-emergence, 336 h, ORYSA: rice (Oryza sativa), application rate 70 g ai/ha, read-out: Visual Growth Reduction (%) 14 Days After Application, ORYSA

Row | Compound | pest or weed control at 70 g/ha [%]
23 | Nc1c(F)c(-c2cc(F)c(I)cc2F)nc(C(=O)O)c1Cl [Compound 69] | 0 to 29

same assay, conditions: post-emergence, 336 h, ORYSA: rice (Oryza sativa), application rate 140 g ai/ha, read-out: Visual Growth Reduction (%) 14 Days After Application, ORYSA

Row | Compound | pest or weed control at 140 g/ha [%]
24 | Nc1c(F)c(-c2cc(F)c(I)cc2F)nc(C(=O)O)c1Cl [Compound 69] | 0 to 29

same assay, conditions: post-emergence, 336 h, SETFA: giant foxtail (Setaria faberi), application rate 70 g ai/ha, read-out: Visual Growth Reduction (%) 14 Days After Application, SETFA

Row | Compound | pest or weed control at 70 g/ha [%]
25 | Nc1c(F)c(-c2cc(F)c(I)cc2F)nc(C(=O)O)c1Cl [Compound 69] | 95 to 100

same assay, conditions: post-emergence, 336 h, SETFA: giant foxtail (Setaria faberi), application rate 140 g ai/ha, read-out: Visual Growth Reduction (%) 14 Days After Application, SETFA

Row | Compound | pest or weed control at 140 g/ha [%]
26 | Nc1c(F)c(-c2cc(F)c(I)cc2F)nc(C(=O)O)c1Cl [Compound 69] | 95 to 100

same assay, conditions: post-emergence, 336 h, SORVU: grain sorghum (Sorghum vulgare), application rate 70 g ai/ha, read-out: Visual Growth Reduction (%) 14 Days After Application, SORVU

Row | Compound | pest or weed control at 70 g/ha [%]
27 | Nc1c(F)c(-c2cc(F)c(I)cc2F)nc(C(=O)O)c1Cl [Compound 69] | 95 to 100

same assay, conditions: post-emergence, 336 h, SORVU: grain sorghum (Sorghum vulgare), application rate 140 g ai/ha, read-out: Visual Growth Reduction (%) 14 Days After Application, SORVU

Row | Compound | pest or weed control at 140 g/ha [%]
28 | Nc1c(F)c(-c2cc(F)c(I)cc2F)nc(C(=O)O)c1Cl [Compound 69] | 95 to 100

same assay, conditions: post-emergence, 336 h, ZEAMX: maize, corn (Zea mays), application rate 70 g ai/ha, read-out: Visual Growth Reduction (%) 14 Days After Application, ZEAMX

Row | Compound | pest or weed control at 70 g/ha [%]
29 | Nc1c(F)c(-c2cc(F)c(I)cc2F)nc(C(=O)O)c1Cl [Compound 69] | 75 to 84

same assay, conditions: post-emergence, 336 h, ZEAMX: maize, corn (Zea mays), application rate 140 g ai/ha, read-out: Visual Growth Reduction (%) 14 Days After Application, ZEAMX

Row | Compound | pest or weed control at 140 g/ha [%]
30 | Nc1c(F)c(-c2cc(F)c(I)cc2F)nc(C(=O)O)c1Cl [Compound 69] | 75 to 84

system: not given; assay: not given; settings: not given

Row | melting point [°C] | Compound
31 | 159 to 161 | Nc1c(F)c(-c2cc(F)c(I)cc2F)nc(C(=O)O)c1Cl [Compound 69]
